According to patent publication US9073857B2, “Aripiprazole type I microcrystal, aripiprazole solid preparations, and preparation method” (SHANGHAI ZHONGXI PHARMACEUTICAL CORPORATION, priority 2011, dated 2015):

Tests used:
[1] = Particle size by laser particle size distribution analyzer; assay type: physicochemical; settings: for particle size D10 / particle size D50 / particle size D90 / particle size D[4,3]: Effect Example 2, microcrystals of the Examples
Experimental: Measure the particle size of aripiprazole in the sample by the following methods, and compare the particle size of aripiprazole in different prescriptions and under different operating conditions.
Test Instrument: BT˜9300S laser particle size distribution analyzer (Dandong Baxter technology Co., Ltd); BT˜800 automatic loop sampling system.
Test conditions: the medium of the loop sampling system is water, with the volume of about 570 ml, and the centrifugal pump speed is 1600 rpm.
Test Method: add appropriate amount of the samples into the loop sampling system, and make the absorbance of the system up to 15%±10, turn on the ultrasonic dispersion for 3 min, continuous sample for 6 times, and gain the average particle size.
1. Dissolve 10 g aripiprazole into aqueous ethanol solution containing hydrochloric acid (the molar ratio of hydrochloric acid to aripiprazole is 1.1, the concentration of the aqueous ethanol solution is 95%, the mass of the aqueous ethanol solution is 30 g), quickly add the 10% aqueous sodium hydroxide (the molar ratio of sodium hydroxide to hydrochloric acid is 1.01) all at once while stirring. Stir for 5 min then add 100 g water, stir again for 5 min, filter the precipitated crystal, wash twice with 20 g water each time and filter each time, dry the crystal at 80° C. for 4 hours, then obtain the aripiprazole microcrystal.
2. Dissolve 10 g aripiprazole into aqueous ethanol solution with hydrochloric acid (the molar ratio of hydrochloric acid to aripiprazole is 1.02), quickly add the 10% aqueous sodium hydroxide (the molar ratio of sodium hydroxide to hydrochloric acid is 1.0) all at once while stirring (with stirring linear speed of 160 m/min). Stir for 5 min then add 100 g water, stir again for 5 min, filter the precipitated crystal, wash twice with 20 g water each time and filter each time, dry the crystals at 80° C. for 4 hours, then obtain the aripiprazole microcrystal.
3. Dissolve 10 g aripiprazole into aqueous ethanol solution with hydrochloric acid (2.3 g 36% hydrochloric acid, 28.5 g anhydrous ethanol. The concentration of the aqueous ethanol solution is 95%), add the 10% aqueous sodium hydroxide (the molar ratio of sodium hydroxide to hydrochloric acid is 1.0) while stirring (with stirring linear speed of 160 m/min). Stir for 5 min then add 100 g water, stir again for 5 min, filter the precipitated crystal, wash twice with 20 g water each time and filter each time, dry the crystal at 80° C. for 4 hours, then obtain the aripiprazole microcrystal.

[2] = within 45 minutes; disclosed at the Japan and South Korea Analytical Chemistry Annual Meeting in 1998; cited from earlier work
[3] = crushed by the universal grinder through mechanical pulverization; cited from earlier work

| SMILES | particle size D10 [1] [micron] | particle size D50 [1] [micron] | particle size D90 [1] [micron] | particle size D[4,3] [1] [micron] | D[4,3] ([1]; starting aripiprazole microcrystals of Example 1) [mircon] | dissolution rate [2] | average particle size [3] |
| --- | --- | --- | --- | --- | --- | --- | --- |
| O=C1CCc2ccc(OCCCCN3CCN(c4cccc(Cl)c4Cl)CC3)cc2N1 [Contrastive Example 1, aripiprazole] | 9.31 | 29.85 | 60.39 | 32.85 |  |  |  |
| O=C1CCc2ccc(OCCCCN3CCN(c4cccc(Cl)c4Cl)CC3)cc2N1 [Example 2, aripiprazole] | 1.85 | 10.91 | 29.82 | 14.17 |  |  |  |
| O=C1CCc2ccc(OCCCCN3CCN(c4cccc(Cl)c4Cl)CC3)cc2N1 [Example 3, aripiprazole] | 1.43 | 11.64 | 34.65 | 15.64 |  |  |  |
| O=C1CCc2ccc(OCCCCN3CCN(c4cccc(Cl)c4Cl)CC3)cc2N1 [Example 4, aripiprazole] | 1.18 | 8.78 | 24.78 | 10.99 |  |  |  |
| O=C1CCc2ccc(OCCCCN3CCN(c4cccc(Cl)c4Cl)CC3)cc2N1 [Example 5, aripiprazole] | 0.74 | 4.75 | 16.34 | 6.79 |  |  |  |
| O=C1CCc2ccc(OCCCCN3CCN(c4cccc(Cl)c4Cl)CC3)cc2N1 [Example 23, aripiprazole] | 1.52 | 9.67 | 32.17 | 13.42 |  |  |  |
| O=C1CCc2ccc(OCCCCN3CCN(c4cccc(Cl)c4Cl)CC3)cc2N1 [Example 24, aripiprazole] | 1.00 | 3.93 | 8.7 | 4.73 |  |  |  |
| O=C1CCc2ccc(OCCCCN3CCN(c4cccc(Cl)c4Cl)CC3)cc2N1 [aripiprazole microcrystals, aripiprazole] |  |  |  |  | 32.85 |  |  |
| O=C1CCc2ccc(OCCCCN3CCN(c4cccc(Cl)c4Cl)CC3)cc2N1 [aripiprazole type I crystal, aripiprazole] |  |  |  |  |  | less than 70% |  |
| O=C1CCc2ccc(OCCCCN3CCN(c4cccc(Cl)c4Cl)CC3)cc2N1 [aripiprazole, 7-[4-[4-(2,3-dichlorophenyl)-1-piperazinyl]butoxy]-3,4-dihydro-2(1H)-quinolinone] |  |  |  |  |  |  | about 100 micron |
